The record followed here is publication PMC11351612, “Heteronuclear Complexes with Promising Anticancer Activity against Colon Cancer” (Biomedicines, 2024).

Data set [1] in a line: Solution stability by UV-vis in PBS. It counts as physicochemical. To be noted: PBS pH 7.4, 37 °C; for Stability under physiological conditions (UV-vis spectrum over time): 24 h. The method, then:
Solution chemistry. The stability of the dinuclear derivatives was analysed by absorption UV-vis spectroscopy. UV-vis absorption spectra of the complexes were recorded on a Thermo Scientific spectrophotometer. Solutions of the complexes (5 × 10^−5 M) in PBS (pH = 7.4) were prepared from 20 mM DMSO stock solutions and thereafter monitored over 24 h at 37 °C, measuring the electronic spectra.
The solution stability of the new heterometallic compounds was determined under physiological conditions. To simulate conditions similar to those in cell culture and the body, the compounds were dissolved in a phosphate-buffered saline solution (PBS) with a pH of 7.4 and then incubated at 37 °C. The UV spectra of each complex were recorded at different time intervals (Figure S14). Qualitative determination of the stability of the compounds under such conditions was achieved by comparing the spectra obtained at each time point.

The target of data set [2] is T1, bovine serum albumin (BSA) (Bos taurus, UniProt P02769).
T1 construct: purchased Sigma Aldrich (St. Louis, MO, USA)
In words: BSA fluorescence quenching (Stern-Volmer). It is filed as binding. To be noted: [BSA] = 50 μM, complex 0-30 μM, 298 K; for Stern-Volmer quenching constant KSV: λexc 295 nm. The method, then:
Interaction with bovine serum albumin. BSA was purchased from Sigma Aldrich (St. Louis, MO, USA). A 2 mM stock solution of BSA was prepared by dissolving the commercial powder in PBS at pH 7.4. Afterwards, the real concentration was confirmed using UV-vis spectroscopy (ε280 nm = 43,824 M^−1cm^−1). The heteronuclear complexes were dissolved in DMSO to achieve 6 mM stock solutions, and six aliquots of 2.5 μL were added to a 50 μM solution of BSA in PBS placed in a quartz cuvette of 1 cm optical path. The final concentrations of the complexes in the cuvette were 0, 5, 10, 15, 20, 25, and 30 μM. The fluorescence spectra were recorded on a Jobin-Yvon-Horiba fluorolog FL-3-11 spectrometer. The samples were excited at 295 nm and the emission spectra were recorded in a range from 310 to 450 nm.
The samples were measured 4 min after every addition of the aliquots of the complexes. The fluorescence intensities of the PBS and the complexes were irrelevant under the described conditions. The data were analysed using the Stern–Volmer equation F0/F = 1 + KSV [gold complex] = 1 + Kqτ0[complex] to obtain the Stern–Volmer quenching constant (KSV) and the quenching rate constant (Kq). The binding constant (Kb) was quantified by using the Stern–Volmer equation: log {(F0 − F)/F} = log Kb + n log [complex].
We have carried out fluorescence and UV-Vis spectroscopic experiments to study the affinity of [Cu{Au(Spy)(PTA)}2]PF6 (1) and [Zn{Au(PTA)(Spy)}2](NO3)2 (2) for albumin. These experiments are based on the quenching of the intrinsic tryptophan fluorescence emission undergone by BSA in the presence of increasing concentrations of the trinuclear complexes, which act as quenchers. The intrinsic fluorescence of BSA is susceptible to alterations in its local environment, and the binding or simple electrostatic interaction of molecules can result in modifications to its emission spectrum. Fluorescence quenching experiments have been carried out, observing the emission of tryptophan at 341 nm upon excitation at 295 nm and increasing concentrations of compounds 2 and 3 with BSA. […] The addition of increasing amounts of the complexes to a BSA solution results in a significant reduction in fluorescence intensity without any shift in the emission maximum. The fluorescence data have been analysed using the Stern–Volmer equation so that the binding of the complexes to BSA and the consequent quenching of the emission can be quantified (Table 3). The corresponding plot F0/F versus [complex] (F and F0 are the corresponding intensities in the presence and the absence of the quencher agent) gives a linear plot in both cases (Figure 1B), characteristic of the presence of a single mechanism of quenching, either static or dynamic. […]

Data set [3] concerns the target T1, bovine serum albumin (BSA). In words: BSA UV-vis absorption superposition (static vs dynamic quenching). It counts as binding. To be noted: compound 24 μM, absorption spectra superposition. The method, then:
Furthermore, examination of the absorption spectra of the fluorophores can be used as a means of characterising static and dynamic quenching. Given the premise that static quenching entails complex formation, alterations in the absorption spectra of BSA are to be anticipated. Conversely, since dynamic quenching only affects the excited states of BSA, its absorption spectra would remain unaltered. The absorption spectra of BSA were recorded in the absence and presence of each compound at a concentration of 24 μM, as well as the absorption spectrum of the compound at the same concentration. A mathematical superposition of the spectrum of BSA and the spectrum of the compounds was calculated.

A further data set has as its system Caco-2/PD7 cells. In words: MTT cell proliferation assay, Caco-2/PD7. It is filed as cell-based, human. To be noted: for Cytotoxic activity compared with mononuclear precursor [Au(Spy)(PTA)] (fold): Caco-2 PD7 and TC7 clones, ratio of IC50; for IC50: MTT, 72 h, mean ± SE of at least three determinations. As to the method: Cell culture. Human colon cancer Caco-2 cells (PD7 and TC7 clones) were kindly provided by Dr. Edith Brot-Laroche (Université Pierre et Marie Curie-Paris 6, UMR S 872, Les Cordeliers, Lyon, France) and grown in Dulbecco’s Modified Eagles medium (DMEM) (Gibco Invitrogen, Paisley, UK) supplemented with 20% foetal bovine serum (FBS), 1% non-essential amino acids, 1% streptomycin (1000 μg/mL), 1% penicillin (1000 μg/mL), and 1% amphotericin (250 U/mL). Caco-2 cells were maintained at 37 °C in a humidified atmosphere at 5% CO2.
Cell proliferation assay. Cell proliferation was measured using the 3-(4,5-dimethyl-2-thiazoyl)-2,5-diphenyltetrazolium bromide (MTT) assay, as previously described. Caco-2/TC7 cells were seeded in a 96-well plate at a density of 4000 cells/well and grown for 24 h before being treated with each complex or DMSO (used as control). After 72 h of incubation with the complexes, 10 μL of MTT (5 mg/mL) were added and incubation was continued at 37 °C for 3 h. Inversion removed the medium and 100 μL of DMSO were added to each well. Absorbance at 560 nm, proportional to many living cells, was measured by spectrophotometry (SPECTROstar Nano, BMG LABTECH, Ortenberg, Germany) and converted into a percentage (%) of growth inhibition.
The antiproliferative effects of the mononuclear and heteropolinuclear complexes were tested on two different Caco-2 cancer cell lines (PD7 and […]). […] Caco-2 cells of both PD7 and TC7 clones were exposed to increasing concentrations of the assayed compounds through dose–response/cell viability analysis. The results in terms of the IC50 parameter (Table 4) were obtained by using the MTT protocol.
(Tetrazolium dyes change colour on reduction, which living cells bring about.)

T1 sequence (P02769 25-607): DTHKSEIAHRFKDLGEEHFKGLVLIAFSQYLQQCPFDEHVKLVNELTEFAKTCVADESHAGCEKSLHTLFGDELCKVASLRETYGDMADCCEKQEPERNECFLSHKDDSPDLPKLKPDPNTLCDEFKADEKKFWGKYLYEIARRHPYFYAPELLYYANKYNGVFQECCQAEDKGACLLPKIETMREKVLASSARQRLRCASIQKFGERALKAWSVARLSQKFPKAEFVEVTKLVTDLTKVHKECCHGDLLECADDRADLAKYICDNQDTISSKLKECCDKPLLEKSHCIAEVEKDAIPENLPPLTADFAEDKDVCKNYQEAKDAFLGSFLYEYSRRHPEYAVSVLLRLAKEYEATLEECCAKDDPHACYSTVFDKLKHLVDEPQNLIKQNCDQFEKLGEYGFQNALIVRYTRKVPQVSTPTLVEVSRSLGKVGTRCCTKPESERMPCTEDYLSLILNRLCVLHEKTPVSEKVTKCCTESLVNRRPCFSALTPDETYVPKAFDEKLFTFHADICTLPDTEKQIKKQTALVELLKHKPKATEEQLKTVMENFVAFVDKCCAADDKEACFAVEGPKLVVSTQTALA

Turning to [Cu{Au(Spy)(PTA)}2]PF6 [compound 1], in data set [1], the “Solubility in PBS (qualitative)” value is on record as “reduced solubility in PBS” and the “Stability under physiological conditions (UV-vis spectrum over time)” value was “notable stability”. Moreover, in data set [2], the “number of binding sites n” value was found to be 1.11 and the “Stern-Volmer quenching constant KSV” value stood at 5730 M⁻¹. Further, the “Quenching / binding mode with BSA” value in data set [3] is given as “dynamic binding”. Further, in the data set with Caco-2/PD7 cells (listed as Au2Cu compound (2)), the “Cytotoxic activity compared with mononuclear precursor [Au(Spy)(PTA)] (fold)” value came out at 15. Further, 0.16 ± 0.02 µM corresponded to half-maximal inhibition in the data set with Caco-2/PD7 cells (IC50).
As for [Zn{Au(PTA)(Spy)}2](NO3)2 [compound 2], in data set [1], the “Solubility in PBS (qualitative)” value is “highly soluble” and the “Stability under physiological conditions (UV-vis spectrum over time)” value was “remained unaltered for a period of 24 h”. For the same substance, in data set [2], the “number of binding sites n” value was 0.95 and the “Stern-Volmer quenching constant KSV” value was determined as 1760 M⁻¹. Besides, the “Quenching / binding mode with BSA” value in data set [3] was “static binding mode may be implied”. Besides, in the data set on Caco-2/PD7 cells, the “Cytotoxic activity compared with mononuclear precursor [Au(Spy)(PTA)] (fold)” value is on record as “slight improvement” and inhibition was half-maximal at 2.18 ± 0.24 µM (IC50).
